Here are results for one compound from paper PMC8718007, “Decreased glutamate transport in acivicin resistant Leishmania tarentolae” (PLoS Neglected Tropical Diseases, 2021).

Each structure is given as a SMILES string.

The target of the experiment is LtaPh_2202300 (AAT22) (Leishmania tarentolae, UniProt A0A640KGB0). The experiment can be described thus: time-dependent uptake of 3H-glutamate, null mutant vs control strain. Conditions: 0.1 mM glutamate in PBS, room temperature; labelled compound. The format is cell-based.
Chain of LtaPh_2202300 (AAT22) (A0A640KGB0 entry or part of it): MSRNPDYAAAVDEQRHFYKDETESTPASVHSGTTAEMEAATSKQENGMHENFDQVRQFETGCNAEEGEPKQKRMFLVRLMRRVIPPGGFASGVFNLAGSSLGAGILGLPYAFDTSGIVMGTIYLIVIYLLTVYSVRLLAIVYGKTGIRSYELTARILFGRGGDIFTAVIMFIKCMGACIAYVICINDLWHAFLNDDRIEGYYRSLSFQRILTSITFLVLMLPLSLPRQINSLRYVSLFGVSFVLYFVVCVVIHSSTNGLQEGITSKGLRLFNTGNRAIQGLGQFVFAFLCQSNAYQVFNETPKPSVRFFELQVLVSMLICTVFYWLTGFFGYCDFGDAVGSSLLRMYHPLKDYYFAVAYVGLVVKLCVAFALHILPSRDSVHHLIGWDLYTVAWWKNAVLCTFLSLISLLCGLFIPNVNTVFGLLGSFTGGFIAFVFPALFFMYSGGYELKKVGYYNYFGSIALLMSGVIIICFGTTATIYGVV

For the compound `N[C@@H](CCC(=O)O)C(=O)O` [glutamate], the uptake entry was “The accumulation of glutamate but not glutamine was greatly diminished in that recombinant strain”.
